Measurements as given in the NIST ThermoML archive (doi:10.1016/j.jct.2008.02.005).

Assay: xn = mol fraction of the nth substance listed
Conditions: 101 kPa, Liquid; for viscosity: Capillary tube (Ostwald / Ubbelohde) method; for speed of sound: Sing-around technique in a fixed-path interferometer

CCCCCCCCO [octan-1-ol] + CCCCCC
Conditions | mass density, 298.15 K [kg/m3] | mass density, 303.15 K [kg/m3] | mass density, 308.15 K [kg/m3] | speed of sound, 298.15 K [m/s] | speed of sound, 303.15 K [m/s] | speed of sound, 308.15 K [m/s] | viscosity, 298.15 K [mPa·s]
x1 = 0.0651 | 668.557 | 663.926 | 659.735 | 1090.1 | 1068.1 | 1046.3 | 0.358
x1 = 0.1109 | 677.728 | 673.192 | 668.685 | 1100 | 1078.1 | 1056.6 | 0.409
x1 = 0.1511 | 685.618 | 681.095 | 676.641 | 1109.9 | 1089.3 | 1066.9 | 0.444
x1 = 0.2052 | 695.979 | 691.566 | 687.129 | 1123.8 | 1102.7 | 1081.6 | 0.53
x1 = 0.2699 | 708.106 | 703.843 | 699.426 | 1142.3 | 1121.4 | 1099.9 | 0.654
x1 = 0.3016 | 713.929 | 709.692 | 705.291 | 1150.4 | 1129.8 | 1109.3 | 0.725
x1 = 0.4013 | 731.693 | 727.596 | 723.487 | 1178.7 | 1158.8 | 1138.9 | 1.023
x1 = 0.5059 | 749.508 | 745.544 | 741.544 | 1209.1 | 1189.6 | 1170.3 | 1.477
x1 = 0.6014 | 765.032 | 761.168 | 757.276 | 1237 | 1218.1 | 1199.2 | 2.057
x1 = 0.7083 | 781.504 | 777.748 | 773.973 | 1268.1 | 1249.8 | 1231.4 | 2.954
x1 = 0.7967 | 794.381 | 790.775 | 787.028 | 1293.2 | 1275.3 | 1257.6 | 3.977
x1 = 0.8463 | 801.415 | 797.955 | 794.319 | 1307.2 | 1289.7 | 1272.1 | 4.666
x1 = 0.9154 | 810.757 | 807.483 | 803.632 | 1326.1 | 1308.4 | 1291.3 | 5.802
x1 = 0.9401 | 814.039 | 810.851 | 807.169 | 1332.7 | 1315.5 | 1298.5 | 6.264
x1 = 1 | 821.813 | 818.796 | 815.286 | 1348 | 1330.8 | 1314.1 | 7.508

CCCCCCCCO [octan-1-ol] + CCCCCCCCCC
Conditions | mass density, 298.15 K [kg/m3] | mass density, 303.15 K [kg/m3] | mass density, 308.15 K [kg/m3] | speed of sound, 298.15 K [m/s] | speed of sound, 303.15 K [m/s] | speed of sound, 308.15 K [m/s] | viscosity, 298.15 K [mPa·s]
x1 = 0.0507 | 730.551 | 726.796 | 722.969 | 1236.4 | 1216.3 | 1196.8 | 0.896
x1 = 0.1199 | 735.871 | 732.137 | 728.314 | 1240.1 | 1220.5 | 1201.1 | 0.978
x1 = 0.1532 | 738.514 | 734.755 | 730.923 | 1242.2 | 1222.7 | 1203.4 | 1.026
x1 = 0.2085 | 742.997 | 739.255 | 735.427 | 1246.3 | 1226.8 | 1207.5 | 1.121
x1 = 0.2654 | 747.773 | 744.007 | 740.195 | 1250.8 | 1231.7 | 1212.6 | 1.233
x1 = 0.3097 | 751.578 | 747.791 | 743.987 | 1254.8 | 1235.6 | 1216.6 | 1.33
x1 = 0.4009 | 759.689 | 755.863 | 752.086 | 1263.5 | 1244.6 | 1225.9 | 1.579
x1 = 0.5041 | 769.261 | 765.532 | 761.703 | 1274.7 | 1256 | 1237.4 | 1.958
x1 = 0.6069 | 779.261 | 775.493 | 771.782 | 1287.2 | 1268.7 | 1250.5 | 2.49
x1 = 0.7244 | 791.228 | 787.587 | 783.929 | 1303.1 | 1285 | 1267.4 | 3.381
x1 = 0.7505 | 793.993 | 790.368 | 786.721 | 1306.9 | 1288.9 | 1271.5 | 3.642
x1 = 0.804 | 799.684 | 796.157 | 792.558 | 1315.2 | 1297.5 | 1279.9 | 4.231
x1 = 0.8958 | 809.826 | 806.478 | 802.907 | 1330.1 | 1312.7 | 1295.6 | 5.521
x1 = 0.9544 | 816.493 | 813.314 | 809.765 | 1339.9 | 1322.9 | 1305.9 | 6.563
x1 = 1 | 821.813 | 818.796 | 815.286 | 1348 | 1330.8 | 1314.1 | 7.508

CCCCCCCCO [octan-1-ol] + CCCCCCCC
Conditions | mass density, 298.15 K [kg/m3] | mass density, 303.15 K [kg/m3] | mass density, 308.15 K [kg/m3] | speed of sound, 298.15 K [m/s] | speed of sound, 303.15 K [m/s] | speed of sound, 308.15 K [m/s] | viscosity, 298.15 K [mPa·s]
x1 = 0.0548 | 705.04 | 700.957 | 696.852 | 1177.6 | 1156.9 | 1136.7 | 0.554
x1 = 0.1078 | 711.299 | 707.298 | 703.23 | 1183.3 | 1162.8 | 1142.7 | 0.621
x1 = 0.1526 | 716.736 | 712.733 | 708.68 | 1189.2 | 1168.9 | 1148.9 | 0.679
x1 = 0.2019 | 722.796 | 718.79 | 714.754 | 1196 | 1175.9 | 1156.1 | 0.762
x1 = 0.2516 | 728.888 | 724.91 | 720.901 | 1203.4 | 1183.5 | 1163.6 | 0.839
x1 = 0.3075 | 735.75 | 731.816 | 727.826 | 1212.2 | 1192.3 | 1172.8 | 0.965
x1 = 0.4055 | 747.852 | 743.986 | 740.044 | 1228 | 1208.9 | 1189.7 | 1.222
x1 = 0.5031 | 759.965 | 756.131 | 752.284 | 1245.5 | 1226.6 | 1207.7 | 1.569
x1 = 0.602 | 772.269 | 768.472 | 764.683 | 1263.9 | 1245.2 | 1227 | 2.091
x1 = 0.7158 | 786.456 | 782.773 | 779.057 | 1286.9 | 1268.7 | 1250.9 | 2.991
x1 = 0.803 | 797.369 | 793.787 | 790.122 | 1305.6 | 1287.7 | 1270.1 | 3.986
x1 = 0.8501 | 803.36 | 799.76 | 796.133 | 1315.7 | 1297.9 | 1280.6 | 4.652
x1 = 0.8959 | 808.907 | 805.579 | 801.983 | 1325.7 | 1308.1 | 1290.9 | 5.399
x1 = 0.9509 | 815.733 | 812.572 | 809.022 | 1337.5 | 1320.2 | 1303.2 | 6.441
x1 = 1 | 821.813 | 818.796 | 815.286 | 1348 | 1330.8 | 1314.1 | 7.508
